# Source: patent US7465744B2, “Triazole compounds and the therapeutic use thereof” (Abbott GmbH & Co. KG, priority 2003, dated 2008)
# pKi: −log10 of the molar value. Where a name gives a salt, the structure may show the parent alone.
# Tests used:
# [1] = molecular target: T1, human dopamine D3 receptors (Homo sapiens, UniProt P35462); assay: Receptor binding study, dopamine D3 receptor ([125I]-iodosulpride displacement); details: membranes from HEK-293 cells, 0.1 nM [125I]-iodosulpride
# T1 construct: expressed in transfected cells
# Description: (§1) The substance to be tested was dissolved either in methanol/Chremophor® (BASF-AG) or in dimethyl sulfoxide and then diluted with water to the desired concentration.
# (§2) The mixture (0.250 ml) is composed of membranes from ˜10^6 HEK-293 cells with stably expressed human dopamine D3 receptors, 0.1 nM [^125I]-iodosulpride and incubation buffer (total binding) or with addition of test substance (inhibition plot) or 1 μM spiperone (nonspecific binding). Triplicate mixtures were carried out.
# The incubation buffer contained 50 mM Tris, 120 mM NaCl, 5 mM KCl, 2 mM CaCl2, 2 mM MgCl2 and 0.1% bovine serum albumin, 10 μM quinolone, 0.1% ascorbic acid (prepared fresh each day). The buffer was adjusted to pH 7.4 with HCl.
# (§3) After incubation at 25° C. for 60 minutes, the mixtures were filtered under vacuum through Wathman GF/B glass fiber filters using a cell harvester. The filters were transferred by a filter transfer system into scintillation vials. After addition of 4 ml of Ultima Gold® (Packard), the samples were shaken for one hour and then the radioactivity was calculated in a beta counter (Packard, Tricarb 2000 or 2200CA). The cp values were converted into dpm by means of a standard quench series with the aid of the instrument's own program.
# (§4) Evaluation of the inhibition plots took place by iterative nonlinear regression analysis using the statistical analysis system (SAS) similar to the “LIGAND” program described by Munson and Rodbard.
# [2] = molecular target: T2, human dopamine D2 (L) receptors (long isoform) (Homo sapiens, UniProt P14416); assay: Receptor binding study, dopamine D2(L) receptor ([125I]-iodospiperone displacement); details: selectivity ratio D2(L) versus D3 binding
# T2 construct: expressed in transfected cells
# Description: as §1
# as §2, with “(1” for “(0.250”, “was” for “is”, “D2 (L) receptors (long isoform) and 0.01” for “D3 receptors, 0.1”, “[^125I]-iodospiperone” for “[^125I]-iodosulpride”, “haloperidol” for “spiperone”
# The incubation buffer contained 50 mM Tris, 120 mM NaCl, 5 mM KCl, 2 mM CaCl2, 2 mM MgCl2 and 0.1% bovine serum albumin. The buffer was adjusted to pH 7.4 with HCl.
# as §3, §4
# [3] = Investigation of the cerebral availability and the oral bioavailability; format: in vivo, male Wistar rats; details: rat; for bioavailability / Kp: male, Wistar; for bioavailability: plasma, AUCoral/AUCiv, oral 10 mg/kg, intravenous 2 mg/kg, read-out: F (bioavailability); for Kp: brain/plasma, oral, 10 mg/kg of body weight, read-out: AUCbrain/AUCplasma; for cmax (brain) / AUCbrain: oral (gavage) 10 mg/kg, brain tissue; for AUCbrain: trapezoidal method
# Description: The test substances were administered to male Wistar rats in parallel experiments in each case intravenously (tail vein, 2 mg/kg of body weight) and orally (gavage, 10 mg/kg of body weight). The test compound was dissolved in water with up to 4% by volume of DMSO and/or ethanol for intravenous administration and suspended in 4% by weight aqueous hydroxypropyl-cellulose solution for oral administration. After various times (intravenous: 5 min, 15 min, 30 min, 2 h, 8 h and 24 h; oral: 15 min, 30 min, 2 h, 8 h and 24 h) after the administration, a blood sample or brain tissue were taken from 2 rats in each case. The concentration of the test compound in the blood plasma and in the brain tissue (plasma and brain) was determined in a conventional way by coupled liquid chromatography/mass spectroscopy or by HPLC. The area under the concentration-time plot for brain (AUCbrain) and for plasma (AUCiV, AUCoral) were by means of the trapezoidal method from the results obtained [((tn−tn-1)×(cn+cn-1)/2) calculated, in which tn is the time of determination and tn-1 is the preceding time of determination, and cn and cn-1 are respectively the concentrations at time tn and tn-1]. The maximum concentration of the active ingredients in brain tissue cmax brain, the value of AUCbrain, and the AUCbrain/AUCplasma ratio is a measure of the cerebral availability of the active substance. In addition, the bioavailability F of the active ingredient was calculated in a manner known per se from the data (AUCoral/AUCiv in %).
# T1 sequence (P35462 whole entry): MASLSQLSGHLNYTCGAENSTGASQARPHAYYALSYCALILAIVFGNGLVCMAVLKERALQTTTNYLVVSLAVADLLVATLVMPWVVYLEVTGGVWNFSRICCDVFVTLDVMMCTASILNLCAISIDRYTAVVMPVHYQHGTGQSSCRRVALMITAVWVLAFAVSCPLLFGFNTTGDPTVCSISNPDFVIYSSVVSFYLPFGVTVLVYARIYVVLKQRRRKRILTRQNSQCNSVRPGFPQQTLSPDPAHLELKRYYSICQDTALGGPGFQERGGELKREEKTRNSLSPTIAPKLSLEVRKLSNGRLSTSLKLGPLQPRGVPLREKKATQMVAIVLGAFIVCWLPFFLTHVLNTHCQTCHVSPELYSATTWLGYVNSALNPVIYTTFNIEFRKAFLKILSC
# T2 sequence (P14416 whole entry, canonical isoform): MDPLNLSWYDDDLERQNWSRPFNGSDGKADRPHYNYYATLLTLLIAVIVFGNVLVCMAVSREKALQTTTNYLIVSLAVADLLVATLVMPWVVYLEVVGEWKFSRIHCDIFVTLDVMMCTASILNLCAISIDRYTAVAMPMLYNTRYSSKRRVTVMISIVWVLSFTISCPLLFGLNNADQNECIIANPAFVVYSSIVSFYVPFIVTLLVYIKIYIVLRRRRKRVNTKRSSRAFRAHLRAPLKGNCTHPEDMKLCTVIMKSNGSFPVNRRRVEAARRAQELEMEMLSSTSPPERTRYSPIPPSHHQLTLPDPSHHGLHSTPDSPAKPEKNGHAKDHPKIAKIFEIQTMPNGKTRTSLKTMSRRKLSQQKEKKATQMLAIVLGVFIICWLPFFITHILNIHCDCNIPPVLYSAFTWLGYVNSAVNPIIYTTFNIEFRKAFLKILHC
Compound,pKi [1],Ki (D2)/Ki (D3) [2],also measured
"Cn1c(SCCCN2CCc3ccc(C(=O)c4cccc(F)c4)cc3C2)nnc1-c1cnccn1 [Ia′-58, 7-(3-Fluorobenzoyl)-2-{3-[(4-methyl-5-pyrazin-2-yl-4H-1,2,4-triazol-3-yl)thio]propyl}-1,2,3,4-tetrahydroisoquinoline]",7.59,39,
"Cn1c(SCCCN2CCc3ccc(C(=O)c4cccc(F)c4)cc3C2)nnc1-c1cccnc1 [Ia′-63, 7-(3-Fluorobenzoyl)-2-{3-[(4-methyl-5-pyridin-3-yl-4H-1,2,4-triazol-3-yl)thio]propyl}-1,2,3,4-tetrahydroisoquinolines]",7.39,38,
"CCC(=O)c1ccc2c(c1)CN(CCCSc1nnc(-c3ccc[nH]3)n1C)C2.Cl [Ib′-65, 1-[2-(3-{[4-Methyl-5-(1H-pyrrol-2-yl)-4H-1,2,4-triazol-3-yl]thio}propyl)-2,3-dihydro-1H-isoindol-5-yl]propan-1-one hydrochloride]",7.40,49,
"CCC(=O)c1ccc2c(c1)CN(CCCSc1nnc(-c3cc4ccccc4s3)n1C)CC2 [Ia′-57, 1-[2-(3-{[5-(1-Benzothien-2-yl)-4-methyl-4H-1,2,4-triazol-3-yl]thio}propyl)-1,2,3,4-tetrahydroisoquinolin-7-yl]propan-1-one]",8.59,59,
"Cn1c(SCCCN2CCc3ccc(C(=O)c4cccc(F)c4)cc3C2)nnc1-c1ccccc1 [Ia′-68, 7-(3-Fluorobenzoyl)-2-{3-[(4-methyl-5-phenyl-4H-1,2,4-triazol-3-yl)thio]propyl}-1,2,3,4-tetrahydroisoquinolines]",7.83,56,
"Cn1c(SCCCN2CCc3ccc(C(=O)c4ccccc4)cc3C2)nnc1-c1ccncc1 [Ia′-1, 7-Benzoyl-2-{3-[(4-methyl-5-pyridin-4-yl-4H-1,2,4-triazol-3-yl)thio]propyl}-1,2,3,4-tetrahydroisoquinoline]",7.94,133,
"Cn1c(SCCCN2CCc3ccc(C(=O)c4ccccc4)cc3C2)nnc1-c1ccco1 [Ia′-3, 7-Benzoyl-2-(3-{[5-(2-furyl)-4-methyl-4H-1,2,4-triazol-3-yl]thio}propyl)-1,2,3,4-tetrahydroisoquinoline]",7.71,40,
"CCC(=O)c1ccc2c(c1)CN(CCCSc1nnc(-c3ccccc3)n1C)CC2 [Ia′-25, 2-{3-[(4-methyl-5-phenyl-4H-1,2,4-triazol-3-yl)thio]propyl}-7-propionyl-1,2,3,4-tetrahydroisoquinoline]",8.36,90,
"Cn1c(SCCCN2CCc3ccc(C(=O)c4cccc(F)c4)cc3C2)nnc1-c1ccccc1 (as salt: hydrochloride) [Ia′-68, 7-(3-Fluorobenzoyl)-2-{3-[(4-methyl-5-phenyl-4H-1,2,4-triazol-3-yl)thio]propyl}-1,2,3,4-tetrahydroisoquinolines]",,,melting point: 147 °C
"Cn1cccc1-c1nnc(SCCCN2CCc3ccc(C(=O)c4ccccc4)cc3C2)n1C [Ia′-12, 7-Benzoyl-2-(3-{[4-methyl-5-(1-methyl-1H-pyrrol-2-yl)-4H-1,2,4-triazol-3-yl]thio}propyl)-1,2,3,4-tetrahydroisoquinoline]",7.97,90,bioavailability [3]: 10%; Kp [3]: 0.2; cmax (brain) [3]: 130 ng/g; AUCbrain [3]: 306 ng·h/g
"CCC(=O)c1ccc2c(c1)CN(CCCSc1nnc(-c3cccn3C)n1C)CC2 (as salt: hydrochloride) [Ia′-15, 2-(3-{[4-Methyl-5-(1-methyl-1H-pyrrol-2-yl)-4H-1,2,4-triazol-3-yl]thio}propyl)-7-propionyl-1,2,3,4-tetrahydroisoquinoline]",,,melting point: 181 to 184 °C
"Cn1cccc1-c1nnc(SCCCN2CCc3ccc(C(=O)c4cccc(F)c4)cc3C2)n1C [Ia′-60, 7-(3-Fluorobenzoyl)-2-(3-{[4-methyl-5-(1-methyl-1H-pyrrol-2-yl)-4H-1,2,4-triazol-3-yl]thio}-propyl)-1,2,3,4-tetrahydroisoquinoline]",7.52,37,
"CC(=O)c1ccc2c(c1)CN(CCCSc1nnc(-c3cccn3C)n1C)CC2 [Ia′-4, 7-Acetyl-2-(3-{[4-methyl-5-(1-methyl-1H-pyrrol-2-yl)-4H-1,2,4-triazol-3-yl]thio}propyl)-1,2,3,4-tetrahydroisoquinoline]",8.35,80,
"CCC(=O)c1ccc2c(c1)CN(CCCSc1nnc(-c3cccn3C)n1C)CC2 [Ia′-15, 2-(3-{[4-Methyl-5-(1-methyl-1H-pyrrol-2-yl)-4H-1,2,4-triazol-3-yl]thio}propyl)-7-propionyl-1,2,3,4-tetrahydroisoquinoline]",8.36,103,bioavailability [3]: 100%; Kp [3]: 0.3; cmax (brain) [3]: 686 ng/g; AUCbrain [3]: 2903 ng·h/g
"Cn1c(SCCCN2CCc3ccc(C(=O)c4ccccc4)cc3C2)nnc1-c1ccsc1 [Ia′-18, 7-Benzoyl-2-{3-[(4-methyl-5-thien-3-yl-4H-1,2,4-triazol-3-yl)thio]propyl}-1,2,3,4-tetrahydroisoquinoline]",7.65,48,
"CC(=O)c1ccc2c(c1)CN(CCCSc1nnc(-c3cccnc3)n1C)CC2 [Ia′-39, 7-Acetyl-2-{3-[(4-methyl-5-pyridin-3-yl-4H-1,2,4-triazol-3-yl)thio]propyl}-1,2,3,4-tetrahydroisoquinolines]",7.73,37,
"CCC(=O)c1ccc2c(c1)CN(CCCSc1nnc(-c3ccccc3)n1C)C2.Cl [Ib′-25, 1-(2-{3-[(4-Methyl-5-phenyl-4H-1,2,4-triazol-3-yl)thio]propyl}-2,3-dihydro-1H-isoindol-5-yl)propan-1-one hydrochloride]",7.67,126,
"Cn1c(SCCCN2CCc3ccc(C(=O)c4ccccc4)cc3C2)nnc1-c1ccsc1 (as salt: hydrochloride) [Ia′-18, 7-Benzoyl-2-{3-[(4-methyl-5-thien-3-yl-4H-1,2,4-triazol-3-yl)thio]propyl}-1,2,3,4-tetrahydroisoquinoline]",,,melting point: 140 °C
"Cn1c(SCCCN2CCc3ccc(C(=O)c4ccccc4)cc3C2)nnc1-c1ccccc1 [Ia′-19, 7-Benzoyl-2-{3-[(4-methyl-5-phenyl-4H-1,2,4-triazol-3-yl)thio]propyl}-1,2,3,4-tetrahydroisoquinolines]",8.07,149,
